Experimental data from patent publication US9976141B2, “Compositions and methods for inhibiting gene expression of Hif2alpha” (Arrowhead Madison Inc., priority 2015, dated 2018).
Strand notation (5' to 3'): a small letter for the sugar, then the base; units joined by * are phosphorothioate-linked, units joined directly phosphodiester-linked; [ ] holds rarer units or linkages, { } end groups; capitals alone tell only the bases. d = 2'-deoxy (DNA); m = 2'-O-methyl; f = 2'-fluoro

Test system: human EPAS1 (Hif2α) cDNA in psiCHECK2 (Renilla luciferase/EPAS1 fusion mRNA) in Hep3B cells
Assay: Efficacy screen of Hif2α RNAi triggers in vitro, dual-luciferase reporter assay (1 nM and 0.1 nM)
Assay type: cell-based
Conditions: Hep3B cells co-transfected with EPAS1-psiCHECK2, Renilla luciferase normalized to firefly luciferase
Text: Candidate sequences were identified by in silico analysis and screened as chemically modified canonical siRNAs in vitro. For screening purposes, the human EPAS1 (Hif2α) cDNA sequence (accession #NM 001430) was synthesized and cloned (DNA 2.0, Menlo Park, Calif.) into a commercially-available reporter-based screening plasmid, psiCHECK2 (Promega, Madison, Wis.) which generated a Renilla luciferase/EPAS1 fusion mRNA. For RNAi trigger efficacy evaluation, Hep3B cells, a human hepatocellular carcinoma line, were plated at 10,000 cells per well in 96-well format. Each of the 187 EPAS1 RNAi triggers, in two subsets, was co-transfected at two concentrations, 1 nM and 0.1 nM, with 25 ng EPAS1-psiCHECK2 plasmid DNA per well and 0.2 μL LipoFectamine 2000 (Life Technologies) per well. Gene knockdown was determined by measuring Renilla luciferase levels normalized to the levels of constitutively-expressed firefly luciferase, also present on the psiCHECK-2 plasmid, using the Dual Luciferase Reporter Assay (Promega, Madison, Wis.) Table 5.

Row | Substance | Relative Rluc-Hif2α (0.1 nM RNAi trigger) | Relative Rluc-Hif2α (1 nM RNAi trigger)
1 | 2245 (sense fAmCfAmCfAmGfGmUfGmGfAmGfCmUfAmAfCmAfAdT; antisense dTfUmGfUmUfAmGfCmUfCmCfAmCfCmUfGmUfGmUdT*dT; siRNA) [compound 2245] | 0.761 ± 0.039 | 0.727 ± 0.066
2 | 2246 (sense fGmAfGmCfUmAfAmCfAmGfGmAfCmAfUmAfGmUfAdT; antisense dTfAmCfUmAfUmGfUmCfCmUfGmUfUmAfGmCfUmCdT*dT; siRNA) [compound 2246] | 0.509 ± 0.044 | 0.327 ± 0.042
3 | 2247 (sense fGmCfUmAfAmCfAmGfGmAfCmAfUmAfGmUfAmUfAdT; antisense dTfAmUfAmCfUmAfUmGfUmCfCmUfGmUfUmAfGmCdT*dT; siRNA) [compound 2247] | 0.439 ± 0.082 | 0.231 ± 0.048
4 | 2248 (sense fCmUfAmAfCmAfGmGfAmCfAmUfAmGfUmAfUmCfAdT; antisense dTfGmAfUmAfCmUfAmUfGmUfCmCfUmGfUmUfAmGdT*dT; siRNA) [compound 2248] | 0.215 ± 0.007 | 0.148 ± 0.036
5 | 2249 (sense fGmGfAmCfAmUfAmGfUmAfUmCfUmUfUmGfAmCfAdT; antisense dTfGmUfCmAfAmAfGmAfUmAfCmUfAmUfGmUfCmCdT*dT; siRNA) [compound 2249] | 0.303 ± 0.042 | 0.190 ± 0.028
6 | 2250 (sense fUmCfUmUfUmGfAmCfUmUfCmAfCmUfCmAfUmCfAdT; antisense dTfGmAfUmGfAmGfUmGfAmAfGmUfCmAfAmAfGmAdT*dT; siRNA) [compound 2250] | 0.255 ± 0.020 | 0.139 ± 0.046
7 | 2251 (sense fUmCfAmCfUmCfAmUfCmCfCmUfGmCfGmAfCmCfAdT; antisense dTfGmGfUmCfGmCfAmGfGmGfAmUfGmAfGmUfGmAdT*dT; siRNA) [compound 2251] | 0.857 ± 0.087 | 0.872 ± 0.121
8 | 2252 (sense fGmAfGmAfUmUfCmGfUmGfAmGfAmAfCmCfUmGfAdT; antisense dTfCmAfGmGfUmUfCmUfCmAfCmGfAmAfUmCfUmCdT*dT; siRNA) [compound 2252] | 0.696 ± 0.096 | 0.592 ± 0.061
9 | 2253 (sense fUmUfCmGfUmGfAmGfAmAfCmCfUmGfAmGfUmCfAdT; antisense dTfGmAfCmUfCmAfGmGfUmUfCmUfCmAfCmGfAmAdT*dT; siRNA) [compound 2253] | 0.646 ± 0.144 | 0.564 ± 0.043
10 | 2254 (sense fUmCfGmUfGmAfGmAfAmCfCmUfGmAfGmUfCmUfAdT; antisense dTfAmGfAmCfUmCfAmGfGmUfUmCfUmCfAmCfGmAdT*dT; siRNA) [compound 2254] | 0.756 ± 0.080 | 0.641 ± 0.054
11 | 2255 (sense fGmAfCmAfUmGfUmCfCmAfCmAfGmAfGmCfGmGfAdT; antisense dTfCmCfGmCfUmCfUmGfUmGfGmAfCmAfUmGfUmCdT*dT; siRNA) [compound 2255] | 0.653 ± 0.130 | 0.721 ± 0.055
12 | 2256 (sense fGmCfGmGfGmAfCmUfUmCfUmUfCmAfUmGfAmGfAdT; antisense dTfCmUfCmAfUmGfAmAfGmAfAmGfUmCfCmCfGmCdT*dT; siRNA) [compound 2256] | 0.796 ± 0.028 | 0.765 ± 0.124
13 | 2257 (sense fGmGfAmUfGmAfAmGfUmGfCmAfCmGfGmUfCmAfAdT; antisense dTfUmGfAmCfCmGfUmGfCmAfCmUfUmCfAmUfCmCdT*dT; siRNA) [compound 2257] | 0.647 ± 0.127 | 0.802 ± 0.044
14 | 2258 (sense fCmAfCmGfGmUfCmAfCmCfAmAfCmAfGmAfGmGfAdT; antisense dTfCmCfUmCfUmGfUmUfGmGfUmGfAmCfCmGfUmGdT*dT; siRNA) [compound 2258] | 0.882 ± 0.098 | 0.972 ± 0.168
